The source of these data is publication PMC8685421 (Frontiers in Pharmacology, 2021).

Where a SMILES comes first, the peptide text is derived from it. Bridges are numbered along the chain shown (N, C = ends).

The target in one assay is T1, Nav1.7 (Homo sapiens, UniProt Q15858).
T1 construct: expressed in transfected cells; host or cells: HEK293T
The assay can be described thus: Whole-cell patch-clamp, Nav1.7 current in HEK293T cells. The assay is classed as cell-based. As to conditions: 50 ms steps to −10 mV from −90 mV, n = 4–6, read-out: IC50 for inhibition of Nav1.7 current. The text has this: (§1) Rat Nav1.4, human Nav1.7 and rat Nav1.8 cDNA clones were kindly gift from Dr. Theodore Cummins (Stark Neurosciences Research Institute, Indiana University School of Medicine, Indianapolis, IN, United States) and were subcloned into the pCMV or pCDNA3.1-blank vectors. Human Nav1.9 was subcloned into the pEGFP-N1 vector. The C-terminal of hNav1.9 was linked to GFP to construct a fusion protein channel (hNav1.9-eGFP), which was as described in our previous studies ([Zhou et al., 2017]). Mutations were made using the site-directed mutation method or recombination-based cloning using GenBuilder™ Cloning Kit (GenScript, United States). Primers presented in Supplementary Tables 1–4. All mutations were verified by DNA sequencing.
(§2) ND7/23 and HEK293T cells were maintained at 37°C in a humidified 5% CO2 incubator in Dulbecco’s Modified Eagle’s Medium (DMEM) supplemented with 10% fetal bovine serum, 100 μg/ml streptomycin, 100 U/ml penicillin, and 2 mM L-glutamine. The cells were trypsinized, diluted with 1 ml of culture medium, and seeded at a 1:5 ratio in 35 mm Petri dishes for culture. When grown to 80–90% confluence, the ND7/23 cells were transfected with hNav1.9-GFP or hNav1.9-GFP mutants using the X-tremeGENE HP DNA Transfection Reagent (Roche, Basel, Switzerland) according to the manufacturer’s instructions. […]
(In general: The patch-clamp technique gives a direct electrical read-out from membranes.)

A further assay addresses T2, Nav1.9/1.8 DIV VSD (Homo sapiens, UniProt Q9UI33, A1385V/A1393E/C1434F/D1399G/DEL1452-1455/H1400R/I1367A/I1373M/I1377C/I1397V/I1408V/I1415M/I1417M/I1446F/I1464V/INS1447AILK/K1392E/K1395T/L1401I/L1411G/L1414V/L1431V/L1438I/M1394K/M1445L/N1389E/P1391G/P1456Y/P1458S/R1481K/S1365R/S1374V/S1382T/S1387T/S1396K/T1444L/T1448S/V1404F/V1407A/V1435I/V1442G/V1465I/V1477I/W1403Q/Y1388D).
T2 construct: expressed in transfected cells; host or cells: ND7/23
The assay can be described thus: Patch-clamp, chimera Nav1.9/1.8 DIV VSD. The assay is classed as cell-based, human Nav1.9 / rat Nav1.8. As to conditions: mean ± SEM, n = 4; I95/Ipeak; read-out: EC50 for inhibition of the fast inactivation.
From the text: as §1, §2

For a further assay, the target named is T3, Nav1.9 (Homo sapiens, UniProt Q9UI33).
T3 construct: expressed in transfected cells; host or cells: ND7/23
The assay can be described thus: Whole-cell patch-clamp, fast inactivation of Nav1.9 in ND7/23 cells. The assay is classed as cell-based. The settings on record: 100 ms depolarization to −40 mV from −120 mV, Hill fit, mean ± SEM, n = 6, read-out: EC50 for inhibition of the fast inactivation of Nav1.9.
From the text: as §1, §2

For the next assay, the target named is T4, Nav1.4 (Rattus norvegicus, UniProt P15390).
T4 construct: expressed in transfected cells; host or cells: HEK293T
The assay can be described thus: Whole-cell patch-clamp, Nav1.4 current in HEK293T cells. As to conditions: 50 ms steps to −10 mV from −90 mV, n = 4–6, read-out: IC50 for inhibition of Nav1.4 current. Type of assay: cell-based.
From the text: as §1, §2

For another assay, the system named is Kv2.1 channel. As to conditions: ref Chen et al., 2012; Bemporad et al., 2006; cited from earlier work. An excerpt:
The venom of the spider Grammostola rosea contains several classes of peptide toxins that target ion channels (Figure 1A). […] Due to poor heterologous expression in mammal cells, pharmacological studies of the Nav1.9 channel have lagged. Previously, we succeeded in achieving functional ...

For assay [1], the system named is voltage sensor of Nav channels. As to conditions: ref Xiao et al., 2008, 2010, Zhou et al., 2020, Liu et al., 2013; cited from earlier work. The text has this: Gating modifier toxins typically affect channel gating by regulating the voltage-sensor of the channel. […] Ther ...
For another assay, the system named is Nav1.7 channel. The arrangement: method as in 3 sources, one per row (each row's own in cited_ref): ref Murray et al., 2015 ||| ref Chen et al., 2020 ||| ref Xiao et al., 2010. The settings on record: ProTx-II; ref Xiao et al., 2010; cited from earlier work.

T3 sequence (Q9UI33 whole entry): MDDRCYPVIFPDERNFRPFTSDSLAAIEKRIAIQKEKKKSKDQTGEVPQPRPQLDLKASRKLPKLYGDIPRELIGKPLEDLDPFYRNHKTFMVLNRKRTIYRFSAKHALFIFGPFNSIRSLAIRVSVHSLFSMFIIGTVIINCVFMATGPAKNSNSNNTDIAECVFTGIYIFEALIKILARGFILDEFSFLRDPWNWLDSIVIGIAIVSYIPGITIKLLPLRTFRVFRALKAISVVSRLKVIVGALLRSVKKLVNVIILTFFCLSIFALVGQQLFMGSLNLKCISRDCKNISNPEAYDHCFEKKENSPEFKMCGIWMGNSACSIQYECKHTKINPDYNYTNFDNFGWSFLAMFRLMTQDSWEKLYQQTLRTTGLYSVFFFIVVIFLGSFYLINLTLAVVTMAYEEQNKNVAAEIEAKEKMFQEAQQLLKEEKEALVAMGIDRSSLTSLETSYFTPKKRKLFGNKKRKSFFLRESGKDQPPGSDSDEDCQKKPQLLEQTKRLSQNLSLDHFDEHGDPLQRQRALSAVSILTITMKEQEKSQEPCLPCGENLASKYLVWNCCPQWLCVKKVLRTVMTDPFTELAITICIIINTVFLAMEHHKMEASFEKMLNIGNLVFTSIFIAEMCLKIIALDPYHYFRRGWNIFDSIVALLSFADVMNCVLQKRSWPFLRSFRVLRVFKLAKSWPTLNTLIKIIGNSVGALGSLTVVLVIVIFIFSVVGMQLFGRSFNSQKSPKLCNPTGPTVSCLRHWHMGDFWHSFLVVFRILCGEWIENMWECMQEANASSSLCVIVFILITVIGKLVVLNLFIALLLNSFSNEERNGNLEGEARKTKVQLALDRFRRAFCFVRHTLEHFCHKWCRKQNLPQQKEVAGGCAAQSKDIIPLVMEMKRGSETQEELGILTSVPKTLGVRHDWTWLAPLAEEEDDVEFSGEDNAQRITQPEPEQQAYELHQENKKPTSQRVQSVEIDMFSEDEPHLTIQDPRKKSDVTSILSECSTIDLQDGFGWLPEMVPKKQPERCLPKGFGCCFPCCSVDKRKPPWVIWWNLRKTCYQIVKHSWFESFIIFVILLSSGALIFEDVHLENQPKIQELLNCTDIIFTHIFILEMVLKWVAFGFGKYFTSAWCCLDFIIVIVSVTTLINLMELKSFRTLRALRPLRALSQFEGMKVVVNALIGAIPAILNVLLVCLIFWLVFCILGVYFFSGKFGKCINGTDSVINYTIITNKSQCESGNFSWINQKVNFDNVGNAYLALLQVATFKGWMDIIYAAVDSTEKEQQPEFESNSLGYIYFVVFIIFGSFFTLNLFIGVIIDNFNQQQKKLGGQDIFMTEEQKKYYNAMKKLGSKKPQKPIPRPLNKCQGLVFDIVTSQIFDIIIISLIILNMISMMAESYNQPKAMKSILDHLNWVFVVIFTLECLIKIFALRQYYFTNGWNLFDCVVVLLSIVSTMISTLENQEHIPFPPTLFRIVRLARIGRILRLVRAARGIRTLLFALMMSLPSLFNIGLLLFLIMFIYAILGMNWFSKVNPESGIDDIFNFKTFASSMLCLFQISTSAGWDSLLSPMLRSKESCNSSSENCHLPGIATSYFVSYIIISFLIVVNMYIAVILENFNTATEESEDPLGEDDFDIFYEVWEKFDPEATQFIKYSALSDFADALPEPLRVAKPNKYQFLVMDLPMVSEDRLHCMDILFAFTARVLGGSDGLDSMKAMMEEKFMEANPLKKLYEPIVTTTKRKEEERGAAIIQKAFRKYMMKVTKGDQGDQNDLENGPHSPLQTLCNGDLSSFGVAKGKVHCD
T2 sequence (Q9UI33 with tags, fused parts or gaps with the stated changes): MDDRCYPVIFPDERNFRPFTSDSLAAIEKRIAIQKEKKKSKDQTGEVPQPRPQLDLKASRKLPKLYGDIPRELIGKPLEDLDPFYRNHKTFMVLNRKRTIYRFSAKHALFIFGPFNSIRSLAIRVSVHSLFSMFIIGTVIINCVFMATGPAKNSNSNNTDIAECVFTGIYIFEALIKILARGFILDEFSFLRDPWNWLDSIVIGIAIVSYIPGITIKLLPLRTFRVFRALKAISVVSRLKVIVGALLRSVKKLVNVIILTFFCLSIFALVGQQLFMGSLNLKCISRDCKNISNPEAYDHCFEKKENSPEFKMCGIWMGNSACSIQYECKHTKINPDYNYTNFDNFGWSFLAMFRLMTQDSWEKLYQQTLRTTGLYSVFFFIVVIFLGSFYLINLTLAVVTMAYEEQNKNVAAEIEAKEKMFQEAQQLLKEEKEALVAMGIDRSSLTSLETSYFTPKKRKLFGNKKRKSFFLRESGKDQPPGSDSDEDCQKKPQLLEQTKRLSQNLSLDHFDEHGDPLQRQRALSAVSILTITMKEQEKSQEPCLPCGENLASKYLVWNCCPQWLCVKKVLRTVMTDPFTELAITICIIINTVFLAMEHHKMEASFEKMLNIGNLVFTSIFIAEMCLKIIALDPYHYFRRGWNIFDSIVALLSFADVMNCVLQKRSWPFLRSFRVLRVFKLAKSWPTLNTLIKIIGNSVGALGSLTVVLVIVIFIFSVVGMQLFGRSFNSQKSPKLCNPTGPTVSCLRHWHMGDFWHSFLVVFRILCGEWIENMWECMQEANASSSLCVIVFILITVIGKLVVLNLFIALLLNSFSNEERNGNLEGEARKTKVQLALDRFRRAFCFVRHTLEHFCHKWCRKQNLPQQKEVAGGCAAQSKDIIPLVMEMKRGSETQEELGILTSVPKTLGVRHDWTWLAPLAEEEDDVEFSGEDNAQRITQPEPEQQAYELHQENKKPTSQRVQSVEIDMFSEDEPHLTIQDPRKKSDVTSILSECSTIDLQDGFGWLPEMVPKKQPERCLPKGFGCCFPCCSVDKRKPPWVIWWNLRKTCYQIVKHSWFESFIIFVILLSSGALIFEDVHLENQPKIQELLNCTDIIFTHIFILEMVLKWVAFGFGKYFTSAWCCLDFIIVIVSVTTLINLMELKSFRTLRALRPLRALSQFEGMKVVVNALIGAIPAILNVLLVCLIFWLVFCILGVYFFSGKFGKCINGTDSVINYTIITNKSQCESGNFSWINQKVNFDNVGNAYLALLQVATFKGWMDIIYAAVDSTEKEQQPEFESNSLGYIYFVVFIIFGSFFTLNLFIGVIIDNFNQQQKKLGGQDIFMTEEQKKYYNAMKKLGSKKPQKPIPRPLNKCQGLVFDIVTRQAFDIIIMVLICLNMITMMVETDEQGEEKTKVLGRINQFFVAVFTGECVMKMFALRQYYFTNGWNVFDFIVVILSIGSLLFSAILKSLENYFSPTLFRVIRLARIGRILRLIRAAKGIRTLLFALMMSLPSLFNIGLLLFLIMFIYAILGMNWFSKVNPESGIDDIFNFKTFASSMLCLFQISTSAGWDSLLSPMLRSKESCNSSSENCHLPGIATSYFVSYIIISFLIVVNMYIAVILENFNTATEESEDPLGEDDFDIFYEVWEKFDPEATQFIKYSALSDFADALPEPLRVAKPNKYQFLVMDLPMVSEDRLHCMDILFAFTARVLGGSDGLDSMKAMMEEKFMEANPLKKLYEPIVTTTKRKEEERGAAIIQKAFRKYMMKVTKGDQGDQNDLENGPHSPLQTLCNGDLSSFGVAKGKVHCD

What is called IC50 is the midpoint of a concentration-inhibition curve. A word on the EC50: it is the concentration at which the effect is half-maximal. For the molecule `CC[C@H](C)[C@@H]1NC(=O)[C@H](CC(N)=O)NC(=O)[C@@H]2CCCN2C(=O)[C@H](Cc2c[nH]c3ccccc23)NC(=O)[C@H](CCCCN)NC(=O)[C@H](CCCNC(=N)N)NC(=O)[C@H](CCCCN)NC(=O)[C@@H]2CSSC[C@@H]3NC(=O)[C@H](CO)NC(=O)CNC(=O)[C@H](Cc4c[nH]c5ccccc45)NC(=O)[C@H](Cc4ccccc4)NC(=O)[C@H](CCC(N)=O)NC(=O)[C@H](CCCCN)NC(=O)[C@@H](NC(=O)[C@@H](N)CCC(=O)O)CSSC[C@H](NC(=O)[C@H](CSSC[C@@H](C(=O)N[C@@H](CC(C)C)C(=O)N[C@@H](Cc4c[nH]c5ccccc45)C(=O)N[C@@H](CC(=O)O)C(=O)NCC(=O)N[C@H](C(=O)N[C@@H](Cc4ccccc4)C(=O)N[C@@H](CO)C(=O)N[C@@H](CCCCN)C(=O)O)[C@@H](C)O)NC1=O)NC(=O)[C@H](CC(=O)O)NC(=O)[C@H](CO)NC(=O)[C@H](CC(=O)O)NC(=O)[C@H](CCCNC(=N)N)NC(=O)[C@H](CO)NC3=O)C(=O)N[C@@H](CCCCN)C(=O)N[C@@H](Cc1c[nH]cn1)C(=O)N[C@@H](CC(C)C)C(=O)NCC(=O)N2` [Gr4b, δ-theraphotoxin-Gr4b] (H-ECKQFWGSCSRDSDCCKHLGCKRKWPNICLWDGTFSK-OH; disulfide 2-16, 9-21, 15-29), the concentration for half-maximal inhibition (IC50) stood at 27 ± 3 nM at Nav1.7 and 411 ± 184 nM at Nav1.4. The EC50 on Nav1.9/1.8 DIV VSD worked out at 1500 ± 250 nM; at Nav1.9, 25 ± 1 nM.

“HaTx1 (ECRYLFGGCKTTSDCCKHLGCKFRDKYCAWDFTFS; UniProt P56852 50-84, looked up)”: the “inhibition of Kv2.1 currents” value with Kv2.1 channel is recorded as “significantly inhibit the currents of the Kv2.1 channel”.

Regarding HWTX-IV, in assay [1], the “reversal of toxin binding by depolarization” value is “reversed by prolonged strong depolarizations”.

On to ProTx-II, for which the “inhibition of Nav1.7 current, voltage dependence” value with Nav1.7 channel was “inhibits the current of the Nav1.7 channel with a significant voltage dependence”.
